Data reported in article PMC10505172, “Discovery and pharmacophoric characterization of chemokine network inhibitors using phage-display, saturation mutagenesis and computational modelling” (Nature Communications, 2023).
Like-named read-outs stand apart in the source and are kept apart here. Ends that are not written are not given here.

Tests used:
CCL8 [1] = molecular target: T1, CCL8 (Homo sapiens, UniProt P80075); test: CCL8-induced THP1 cell migration (chemotaxis); type: cell-based; settings: for effect on chemokine-induced cell migration compared with scrambled control HD2SCR: peptides 10 μM, chemokine at EC80, THP1 cells, n = 3 biological replicates, Dunnett's test
T1 construct: purchased Peprotech 300-15
T1 sequence (P80075 24-99): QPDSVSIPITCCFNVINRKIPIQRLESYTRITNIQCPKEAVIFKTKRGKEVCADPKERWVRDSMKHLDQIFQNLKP
Experimental: (§1) For THP1 migration assays, 300000 cells/well were added to the top chamber of a 5-µm 96-well Transwell insert (3387, Corning) in 50 µL of cell migration media (RPMI-1640 (R0883, Sigma), 0.5% FBS (F9665, Sigma), 4 mM L-Glutamine (G7513, Sigma), 0.05% DMSO (D4540, Sigma)). The bottom chamber contained 150 µL of migration media with chemokine and peptide added. Cells were migrated at 37 °C in 5% CO2 for 4 h.
Following the migration assay the migration plate was shaken at 850 RPM for 10 min, and media from bottom plate transferred to a round-bottomed 96 well plate (353910, Falcon). Cell counts were determined using an Atune NxT Flow Cytometer Plate Reader with Cytkick autosampler (ThermoFisher), based on cell size parameters FSC-H/SSC-H, and a previously defined gate setting for each cell type (Supplementary Fig. 11). All experiments were performed as three technical and three biological replicates. Statistical significances between control and experimental groups was evaluated using Dunnett’s test[73]. IC50 experiments were performed at the EC80 dose of chemokine. EC80 was calculated by fitting a chemokine dose-response curve with a 3-parameter log-logistic model (fixing the top to 100%) using the function “drm” in R-package drc[74]. IC50 was calculated by fitting an inhibitor response curve with a 4-parameter log-logistic model using the function “drm” in R-package drc[74]. All IC50 values reported had p-value < 0.05.

CXCL10 [2] = molecular target: T2, CXCL10 (Homo sapiens, UniProt P02778); test: CXCL10-induced activated T cell (ATC) migration (chemotaxis); type: cell-based
T2 construct: purchased Peprotech 300-12
Experimental: For activated-T cell migration assays, 100000 cells/well were added to the top chamber of a 3-µm Transwell insert (3385, Corning) in 50 µL of migration media (HBSS (14025-092, Life Technologies), 0.1% protease free bovine serum albumin (A7030, Sigma), 0.05% DMSO (D4540, Sigma)). The bottom chamber contained 150 µL of migration media with chemokine and peptide added. Cells were migrated at 37 °C in 5% CO2 for 2 h.
(§2) Following the migration assay the migration plate was shaken at 850 RPM for 10 min, and media from bottom plate transferred to a round-bottomed 96 well plate (353910, Falcon). Cell counts were determined using an Atune NxT Flow Cytometer Plate Reader with Cytkick autosampler (ThermoFisher), based on cell size parameters FSC-H/SSC-H, and a previously defined gate setting for each cell type (Supplementary Fig. 11). All experiments were performed as three technical and three biological replicates. Statistical significances between control and experimental groups was evaluated using Dunnett’s test[73]. IC50 experiments were performed at the EC80 dose of chemokine. EC80 was calculated by fitting a chemokine dose-response curve with a 3-parameter log-logistic model (fixing the top to 100%) using the function “drm” in R-package drc[74]. IC50 was calculated by fitting an inhibitor response curve with a 4-parameter log-logistic model using the function “drm” in R-package drc[74]. […]

CCL7 [3] = molecular target: T3, CCL7 (Homo sapiens, UniProt P80098); test: CCL7-induced THP1 cell migration (chemotaxis); type: cell-based
T3 construct: purchased Peprotech 300-17
Experimental: as §1, §2

CCL5 [4] = molecular target: T4, CCL5 (Homo sapiens, UniProt P13501); test: CCL5-induced THP1 cell migration (chemotaxis); type: cell-based
T4 construct: purchased Peprotech 300-06
T4 sequence (P13501 24-91): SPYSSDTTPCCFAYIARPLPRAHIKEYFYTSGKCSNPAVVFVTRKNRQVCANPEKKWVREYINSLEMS
Experimental: as §1, §2

CXCL6 = molecular target: T5, CXCL6 (Homo sapiens, UniProt P80162); test: CXCL6-induced Jurkat CXCR1 (J:CXCR1) migration (chemotaxis); type: cell-based
T5 construct: purchased Peprotech 300-41
Experimental: as §1
J:CXCR1 migration assays were performed exactly as for THP1 assays except that a 3-µm Transwell insert (3385, Corning) was used.
Following the migration assay the migration plate was shaken at 850 RPM for 10 min, and media from bottom plate transferred to a round-bottomed 96 well plate (353910, Falcon). Cell counts were determined using an Atune NxT Flow Cytometer Plate Reader with Cytkick autosampler (ThermoFisher), based on cell size parameters FSC-H/SSC-H, and a previously defined gate setting for each cell type (Supplementary Fig. 11). […] Statistical significances between control and experimental groups was evaluated using Dunnett’s test[73]. […] EC80 was calculated by fitting a chemokine dose-response curve with a 3-parameter log-logistic model (fixing the top to 100%) using the function “drm” in R-package drc[74]. IC50 was calculated by fitting an inhibitor response curve with a 4-parameter log-logistic model using the function “drm” in R-package drc[74]. […]

CCL5 [5] = settings: cited from earlier work
Source text: Peptides and peptidomimetics that mimic the activity of parental proteins have been successfully developed from several naturally occurring proteins into viable clinical therapeutics. Exemplars include the peptidomimetics captopril, eptifibatide and tirofiban, which are based on peptides derived from the snake venom toxins bradykinin-potentiating-peptide, barbourin and echistatin respectively. […] Inspired by these exemplars, by usi ...

[6] = system: 25 biotinylated chemokines; test: Phage-display library selection with deep sequencing; type: binding, human; settings: multivalent p8 phage display, three selection rounds, 25 chemokine baits, enrichment vs input library
Experimental: Phage display screening was performed using a protocol as described[71] with certain modifications. Experiments were performed in 96-well plates (Greiner Bio-One, 655180). Briefly, biotinylated chemokines (1 μg, Almac or ProteinFoundry, Supplementary Table 1) were immobilised on 5 μl streptavidin-coated magnetic beads (Dynabeads™ M-280 Streptavidin, Invitrogen, 11205D) and incubated overnight at 4 °C. […]
Inserts from the input library and from the final phage population following selection were amplified by PCR using primers: 5′- […] and 5′-[…], (Life Technologies). The PCR products were cleaned up using Monarch® PCR & DNA Cleanup Kit (5 μg) (T1030, NEB), 260/280 ratio determined by Nanodrop, quantified using a Qubit dsDNA Quantitation, High Sensitivity Kit (Q32851, Thermo Scientific) and subsequently sequenced at Azenta/GeneWiz using the AmpliconEZ protocol.
Paired end read Fastq files were joined by the read id. […] Hexadecapeptide enrichment (E) following selection was calculated as ratio of output peptide frequency to input peptide frequency and expressed as log2E. […]

CCL8 [7] = molecular target: T1, CCL8; test: Biolayer interferometry, His-SUMO peptide fusion binding to chemokine
Source text: We next evaluated the ability of the exemplar peptide HD2 to bind a panel of chemokines (Supplementary Table 3) using biolayer interferometry (BLI). We generated HD2 and a scrambled control (HD2SCR) as HIS:SUMO fusion proteins in E.coli. This approach results in soluble proteins that can be immobilised on to BLI sensors through the N-terminal HIS tag. […] The binding of HD2 to these chemokines was characterised at different chemokine doses to evaluate binding affinity (KD). […] As chemokines are known to oligomerize in solution and also upon glycosaminoglycan binding, the most parsimonious explanation for this binding profile is chemokine oligomerization at the BLI sensor. […] The most likely explanation is that multivalent phage peptide-display allows identification of lower affinity interactions in comparison to BLI[40].
The binding of His-SUMO tagged peptide fusions to various chemokines (Supplementary Table 3) was investigated by biolayer interferometry (BLI) using Ni-NTA biosensors (18-5101, ForteBio). All BLI data were obtained at 25 °C using a ForteBio-Sartorius Octet RED 384 instrument and Octet 384-well tilted bottom microplate (18-5080, Sartorius). […] Kinetic data was analysed using buffer subtracted wavelength shift and a 1:1 binding model.

CCL5 [8] = molecular target: T4, CCL5; test: Biolayer interferometry cross-binding screen; settings: 1 μM chemokine, fusion 1 mg/mL immobilised; specific if Rmax exceeded 3 times Rmax of SUMO:HD2SCR; two independent experiments
Experimental: (§3) The binding of His-SUMO tagged peptide fusions to various chemokines (Supplementary Table 3) was investigated by biolayer interferometry (BLI) using Ni-NTA biosensors (18-5101, ForteBio). All BLI data were obtained at 25 °C using a ForteBio-Sartorius Octet RED 384 instrument and Octet 384-well tilted bottom microplate (18-5080, Sartorius). The biosensors were preincubated overnight at room temperature in BLI buffer (PBS, 500 mM NaCl, 0.01% BSA (A7638, Sigma) + 0.002% Tween (P2287, Sigma)). His-SUMO tagged peptide fusions at 1 mg/mL (for cross-binding screen assay) and at 0.25 mg/mL (for kinetic assays) were immobilised on the Ni-NTA biosensors for 500 s using the BLI buffer. The HIS:SUMO fusion-loaded biosensors were then washed in the BLI buffer to allow signal stabilisation. To study the association with the analyte (chemokines), the biosensors were then dipped in chemokine solutions of various concentrations (1 μM for cross-binding screen assays, a range of 25–750 nM for kinetic assays) made in the BLI buffer, for either 300 s for cross-binding screen assays, or 600 s for kinetic assays. This was followed by the dissociation step, where the biosensors were incubated in BLI buffer for 300 s for screening assays and 600 s for kinetic assays. For chemokine cross-binding screens, wavelength shift was normalised by subtracting the signal from buffer control, and normalising the highest Rmax (i.e., with CCL8 and HD2) obtained in the experiment to 1. Kinetic data was analysed using buffer subtracted wavelength shift and a 1:1 binding model. […]
(§4) independent experiments. Plots display normalised wavelength shift (y axis; nm) versus time (x-axis; seconds). Vertical dotted line indicates the onset of dissociation. Cross-binding experiments (at 1 uM chemokine concentration) were performed with a panel of chemokines (see Supplementary information
(§5) Table 3). […] Chemokine names are indicated. […]
(§6) specific binding in two independent experiments are shown. […]

CCL7 [9] = molecular target: T3, CCL7; test: Biolayer interferometry cross-binding screen; settings: 1 μM chemokine, fusion 1 mg/mL immobilised; specific if Rmax exceeded 3 times Rmax of SUMO:HD2SCR; two independent experiments
Experimental: as §3, §4, §5, §6

CXCL10 [10] = molecular target: T2, CXCL10; test: Biolayer interferometry cross-binding screen; settings: 1 μM chemokine, fusion 1 mg/mL immobilised; specific if Rmax exceeded 3 times Rmax of SUMO:HD2SCR; two independent experiments
Experimental: as §3, §4, §5, §6

CCL1 = test: Biolayer interferometry cross-binding screen; design: species or system human; settings: 1 μM chemokine, fusion 1 mg/mL immobilised; specific if Rmax exceeded 3 times Rmax of SUMO:HD2SCR; two independent experiments
Experimental: as §3, §4, §5, §6

CCL11 = test: Biolayer interferometry cross-binding screen; design: species or system human; settings: 1 μM chemokine, fusion 1 mg/mL immobilised; specific if Rmax exceeded 3 times Rmax of SUMO:HD2SCR; two independent experiments
Experimental: as §3, §4, §5, §6

CXCL13 = test: Biolayer interferometry cross-binding screen; design: species or system human; settings: 1 μM chemokine, fusion 1 mg/mL immobilised; specific if Rmax exceeded 3 times Rmax of SUMO:HD2SCR; two independent experiments
Experimental: as §3, §4, §5, §6

T5 sequence (P80162 38-114): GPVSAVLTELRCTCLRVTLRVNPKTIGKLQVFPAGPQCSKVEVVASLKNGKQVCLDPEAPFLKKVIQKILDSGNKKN
T3 sequence (P80098 24-99): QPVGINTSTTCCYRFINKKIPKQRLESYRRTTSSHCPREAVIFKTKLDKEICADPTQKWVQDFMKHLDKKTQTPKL

## DEDYEDFFKPVTCYFA [HD540, hexadecapeptide from evasin EV672_RHIPC]
CCL8 [1]
  effect on chemokine-induced cell migration compared with scrambled control HD2SCR: inhibition

## EDEDYEDFFKPVTCYF [HD845, hexadecapeptide from evasin EV672_RHIPC, previously described as BK1.5]
CCL8 [1]
  effect on chemokine-induced cell migration compared with scrambled control HD2SCR: inhibition

## EEDDYTAYAPLTCYFT-NH2 [HD2]
CXCL10 [2]
  IC50: 2500 nM
CCL8 [1]
  IC50: 19 nM
CCL7 [3]
  IC50: 5700 nM
CCL5 [4]
  IC50: 790 nM
CXCL6
  IC50: 7100 nM
CXCL6; IC50, median, median of biological replicates (n = 3), Fig. 6k, J:CXCR1 cells, chemokine at EC80
  IC50: 14000 nM

## EEEDDYTAYAPLTAYFTN [Ev4Glu^14-Asn^31]
CCL5 [5]
  inhibition of CCL5 function: inhibits CCL5 function

## EEEDDYTAYAPLTCYF [HD7, hexadecapeptide from evasin EVA4_RHISA]
[6]
  number of chemokines bound with log2E > 5: over 15

## sHD2: HD2 generated as HIS:SUMO fusion protein in E.coli for BLI (EEDDYTAYAPLTCYFT; also: HIS:SUMO fusion protein, side not given here)
CCL8 [7]; 1 μM chemokine, fusion 1 mg/mL immobilised, specific if Rmax exceeded 3 times Rmax of SUMO:HD2SCR, two independent experiments
  specific binding in BLI cross-binding screen: specifically and reproducibly bind
CCL8 [7]; Expt ID E12, N = 5 dose responses with good fits, BLI kinetic assay, 1:1 binding model, 25 °C
  Kd: 142 nM
CCL5 [8]
  specific binding in BLI cross-binding screen: specifically and reproducibly bind
CCL7 [9]
  specific binding in BLI cross-binding screen: specifically and reproducibly bind
CXCL10 [10]
  specific binding in BLI cross-binding screen: specifically and reproducibly bind
CCL1
  specific binding in BLI cross-binding screen: specifically and reproducibly bind
CCL11
  specific binding in BLI cross-binding screen: specifically and reproducibly bind
CXCL13
  specific binding in BLI cross-binding screen: specifically and reproducibly bind
